Measurements reported in patent US7235258B1, “Sustained-release formulations for treating CNS-mediated disorders” (NPS Pharmaceuticals, Inc., priority 1999, dated 2007).
Read-outs that look alike come from different tables or passages of the source.

Experiments:
[1] = Safety and tolerability in the ascending single oral dose study; type: in vivo, human
Method: (§1) Isovaleramide (NPS 1776) was orally administered in a double-blind, placebo-controlled, ascending single dose study conducted in two groups of healthy young male Caucasian subjects and one group of healthy young female Caucasian subjects to investigate the safety, tolerability, pharmacodynamics and pharmacokinetics of the drug. Various amounts of the drug were dissolved in 250 mL of a flavored soft drink (powdered soft drink diluted in mineral water) and administered as an oral solution.
The most common adverse events were polyuria and headache. There were no dose-related trends in the incidence or severity of adverse events, or any difference in the incidence or severity of adverse events reported. Similar results were obtained in a 1200 mg dose level female group administered the drug for gender comparison.

[2] = Water solubility of the drug (statement); type: physicochemical
[3] = Ascending single oral dose pharmacokinetic study of isovaleramide (oral solution) in healthy subjects; type: in vivo, human; details: for half-life / Cmax / CL/F: human; for CL/F: arithmetic mean
Method: as §1
Isovaleramide administered orally in the absence of a sustained-release formulation was rapidly absorbed and rapidly eliminated in human subjects (Table 1). Systemic exposure to the drug increased with increasing oral doses from 100 to 1600 mg in male subjects.

**Q.** Which results are given for `CC(C)CC(N)=O` [Isovaleramide]?
**A.** changes in vital signs, 12-lead ECG, clinical laboratory assessments or physical examination ([1]; all dose levels): no clinically significant drug-or dose-related changes; tolerability ([1]; oral 100 to 1600 mg, healthy male subjects): well tolerated; severity of drug-related adverse events ([1]; oral 100 to 1600 mg, few events, most common polyuria and headache): all were mild in severity; water solubility [2]: very water soluble; time at which blood level falls below the effective concentration ([3]; 1200 mg dose, assumed effective target concentration about 10 μg/mL): about 5 hours; half-life ([3]; female, plasma, females, oral, 1200 mg, read-out: t½ (converted)): 113 min; Cmax ([3]; blood, oral, 1200 mg, read-out: initial maximum blood concentration (Cmax)): ~27000 ng/mL; half-life ([3]; plasma, humans, oral, no sustained-release formulation, doses 100 to 1600 mg, read-out: half-life (converted)): ~150 min; CL/F ([3]; plasma, male humans, oral, 100 mg): 3.83 mL/min/kg; Cmax ([3]; plasma, male humans, oral, 100 mg, geometric mean, read-out: Cmax): 1510 ng/mL; half-life ([3]; plasma, male humans, oral, 100 mg, harmonic mean, read-out: t1/2 (converted)): 162 min; CL/F ([3]; plasma, male humans, oral, 200 mg): 3.08 mL/min/kg; Cmax ([3]; plasma, male humans, oral, 200 mg, geometric mean, read-out: Cmax): 3320 ng/mL; half-life ([3]; plasma, male humans, oral, 200 mg, harmonic mean, read-out: t1/2 (converted)): 157 min; CL/F ([3]; plasma, male humans, oral, 400 mg): 3.13 mL/min/kg; Cmax ([3]; plasma, male humans, oral, 400 mg, geometric mean, read-out: Cmax): 6840 ng/mL; half-life ([3]; plasma, male humans, oral, 400 mg, harmonic mean, read-out: t1/2 (converted)): 150 min; CL/F ([3]; plasma, male humans, oral, 800 mg): 2.73 mL/min/kg; Cmax ([3]; plasma, male humans, oral, 800 mg, geometric mean, read-out: Cmax): 16400 ng/mL; half-life ([3]; plasma, male humans, oral, 800 mg, harmonic mean, read-out: t1/2 (converted)): 141 min; CL/F ([3]; plasma, male humans, oral, 1200 mg): 2.47 mL/min/kg; Cmax ([3]; plasma, male humans, oral, 1200 mg, geometric mean, read-out: Cmax): 27900 ng/mL; half-life ([3]; plasma, male humans, oral, 1200 mg, harmonic mean, read-out: t1/2 (converted)): 146 min; CL/F ([3]; plasma, male humans, oral, 1600 mg): 2.17 mL/min/kg; Cmax ([3]; plasma, male humans, oral, 1600 mg, geometric mean, read-out: Cmax): 39300 ng/mL; half-life ([3]; plasma, male humans, oral, 1600 mg, harmonic mean, read-out: t1/2 (converted)): 159 min; time to maximum drug concentration ([3]; humans, oral, all doses): less than one hour; time to maximum drug concentration, typical ([3]; humans, oral, all doses): about 30 minutes; increase in Cmax and AUC relative to increase in dose level ([3]; male subjects, oral, 100 to 1600 mg): slightly greater than proportional; change in drug concentration in the blood over a 12-hour period ([3]; single dose, for a 2.5-hour half-life): about 10 fold
